In brackets after ≈: the same amount, converted by molar mass. Activity calls are given as the source filed them. No cut-off for these calls is given here.
What was measured:
[1] = test system: Plasmodium vivax; experiment: Antimalarial activity against Plasmodium vivax VietnamPalo Alto in po dosed Owl monkey assessed as curative dose compound treated for 7 days in presence of 5 mg/kg sulfadiazine for 7 days; format: functional
[2] = test system: Plasmodium gallinaceum; experiment: Antimalarial activity against trophozoite-induced Plasmodium gallinaceum infected in chick assessed as mean survival time at 2.5 mg/kg, sc single dose (reference value: 4 days); format: functional; conditions: route subcutaneous
[3] = test system: Staphylococcus aureus; experiment: Antibacterial activity against Staphylococcus aureus UC-76 assessed as growth inhibition; format: functional
[4] = test system: Plasmodium gallinaceum; experiment: Antimalarial activity against trophozoite-induced Plasmodium gallinaceum infected in chick assessed as mean survival time at 20 mg/kg, sc single dose (reference value: 4 days); format: functional; conditions: route subcutaneous
[5] = test system: Plasmodium berghei; experiment: Antimalarial activity against trophozoite-induced Plasmodium berghei infected in mouse assessed as change in mean survival time at 1.25 mg/kg, sc single dose after 72 hrs of infection; format: functional; conditions: route subcutaneous
[6] = test system: Plasmodium gallinaceum; experiment: Antimalarial activity against trophozoite-induced Plasmodium gallinaceum infected in chick assessed as mean survival time at 5 mg/kg, sc single dose (reference value: 4 days); format: functional; conditions: route subcutaneous
[7] = test system: Gallus gallus; experiment: Toxicity in trophozoite-induced Plasmodium gallinaceum infected in chick assessed as death at 10 mg/kg, sc single dose measured within 48 hrs; format: organism-based; parameters: dose 10 mg/kg, route subcutaneous; conditions: chicken, in vivo
[8] = test system: Mycobacterium tuberculosis; experiment: Antibacterial activity against Mycobacterium tuberculosis H37Rv assessed as growth inhibition; format: functional
[9] = test system: Plasmodium falciparum; experiment: Antimalarial activity against Plasmodium falciparum Vietnam Smith in po dosed Owl monkey assessed as curative dose compound treated for 7 days in presence of 5 mg/kg sulfadiazine for 7 days; format: functional
[10] = test system: Plasmodium falciparum; experiment: Antimalarial activity against Plasmodium falciparum Malayan Camp CH/Q infected in po once daily dosed Owl monkey assessed as curative dose compound treated for 7 days; format: functional
[11] = test system: Gallus gallus; experiment: Toxicity in trophozoite-induced Plasmodium gallinaceum infected in chick assessed as death at 5 mg/kg, sc single dose measured within 48 hrs; format: organism-based; parameters: dose 5 mg/kg, route subcutaneous; conditions: chicken, in vivo
[12] = test system: Plasmodium gallinaceum; experiment: Antimalarial activity against trophozoite-induced Plasmodium gallinaceum infected in chick assessed as cured at 40 mg/kg, sc single dose; format: functional, organism-based; parameters: dose 40 mg/kg
[13] = test system: Pseudomonas aeruginosa; experiment: Antibacterial activity against Pseudomonas aeruginosa 28 assessed as growth inhibition; format: functional
[14] = test system: Plasmodium falciparum; experiment: Antimalarial activity against chloroquine-resistant, pyrimethamine-sensitive Plasmodium falciparum Vietnam Oak Knoll in Aotus monkey assessed as dose required to >50% cures compound treated for 7 days; format: functional
[15] = test system: Plasmodium gallinaceum; experiment: Antimalarial activity against trophozoite-induced Plasmodium gallinaceum infected in chick assessed as mean survival time at 40 mg/kg, sc single dose (reference value: 4 days); format: functional; conditions: route subcutaneous
[16] = test system: Plasmodium berghei; experiment: Antimalarial activity against trophozoite-induced Plasmodium berghei infected in mouse assessed as change in mean survival time at 2.5 mg/kg, sc single dose after 72 hrs of infection; format: functional; conditions: route subcutaneous
[17] = test system: Plasmodium gallinaceum; experiment: Antimalarial activity against trophozoite-induced Plasmodium gallinaceum infected in chick assessed as mean survival time at 1.25 mg/kg, sc single dose (reference value: 4 days); format: functional; conditions: route subcutaneous
[18] = test system: Lacticaseibacillus casei; experiment: Antibacterial activity against Lactobacillus casei assessed as growth inhibition; format: functional, organism-based
[19] = test system: Plasmodium gallinaceum; experiment: Antimalarial activity against trophozoite-induced Plasmodium gallinaceum infected in chick assessed as cured at 1.25 mg/kg, sc single dose; format: functional, organism-based; parameters: dose 1.25 mg/kg
[20] = test system: Escherichia coli; experiment: Antibacterial activity against Escherichia coli Vogel assessed as growth inhibition; format: functional
[21] = test system: Plasmodium gallinaceum; experiment: Antimalarial activity against trophozoite-induced Plasmodium gallinaceum infected in chick assessed as cured at 20 mg/kg, sc single dose; format: functional, organism-based; parameters: dose 20 mg/kg
[22] = test system: Plasmodium gallinaceum; experiment: Antimalarial activity against trophozoite-induced Plasmodium gallinaceum infected in chick assessed as cured at 2.5 mg/kg, sc single dose; format: functional, organism-based; parameters: dose 2.5 mg/kg
[23] = test system: Plasmodium gallinaceum; experiment: Antimalarial activity against cycloguanil-resistant Plasmodium gallinaceum infected in mouse assessed as dose required to suppress parasitemia by 90% compound treated through gavage for 3 days relative to parent strain; format: functional
[24] = test system: Enterococcus faecalis; experiment: Antibacterial activity against Streptococcus faecalis MGH-2 assessed as growth inhibition; format: functional
[25] = test system: Plasmodium falciparum; experiment: Antimalarial activity against Plasmodium falciparum Malayan Camp CH/Q infected in po dosed Owl monkey assessed as curative dose compound treated for 7 days in presence of 5 mg/kg sulfadiazine for 7 days; format: functional
[26] = test system: Gallus gallus; experiment: Toxicity in trophozoite-induced Plasmodium gallinaceum infected in chick assessed as death at 20 mg/kg, sc single dose measured within 48 hrs; format: organism-based; parameters: dose 20 mg/kg, route subcutaneous; conditions: chicken, in vivo
[27] = test system: Plasmodium gallinaceum; experiment: Antimalarial activity against trophozoite-induced Plasmodium gallinaceum infected in chick assessed as cured at 10 mg/kg, sc single dose; format: functional, organism-based; parameters: dose 10 mg/kg
[28] = test system: Plasmodium gallinaceum; experiment: Antimalarial activity against trophozoite-induced Plasmodium gallinaceum infected in chick assessed as mean survival time at 10 mg/kg, sc single dose (reference value: 4 days); format: functional; conditions: route subcutaneous
[29] = test system: Plasmodium falciparum; experiment: Antimalarial activity against chloroquine-sensitive, pyrimethamine-resistant Plasmodium falciparum Malayan Camp CH/Q infected in Aotus monkey assessed as dose required to >50% cures compound treated for 7 days; format: functional
[30] = test system: Plasmodium berghei; experiment: Antimalarial activity against trophozoite-induced Plasmodium berghei infected in sc dosed mouse assessed as minimum curative dose; format: functional
[31] = test system: Plasmodium falciparum; experiment: Antimalarial activity against Plasmodium falciparum Vietnam Oak Knoll in po once daily dosed Owl monkey assessed as curative dose compound treated for 7 days; format: functional
[32] = test system: Gallus gallus; experiment: Toxicity in trophozoite-induced Plasmodium gallinaceum infected in chick assessed as death at 40 mg/kg, sc single dose measured within 48 hrs; format: organism-based; parameters: dose 40 mg/kg, route subcutaneous; conditions: chicken, in vivo
[33] = test system: Plasmodium falciparum; experiment: Antimalarial activity against Plasmodium falciparum Vietnam Smith in po once daily dosed Owl monkey assessed as curative dose compound treated for 7 days; format: functional
[34] = test system: Gallus gallus; experiment: Toxicity in trophozoite-induced Plasmodium gallinaceum infected in chick assessed as death at 1.25 mg/kg, sc single dose measured within 48 hrs; format: organism-based; parameters: dose 1.25 mg/kg, route subcutaneous; conditions: chicken, in vivo
[35] = test system: Plasmodium vivax; experiment: Antimalarial activity against Plasmodium vivax VietnamPalo Alto in po once daily dosed Owl monkey assessed as curative dose compound treated for 7 days; format: functional
[36] = test system: Plasmodium vivax; experiment: Antimalarial activity against Plasmodium vivax New Guinea Chesson in po once daily dosed Owl monkey assessed as curative dose compound treated for 7 days; format: functional
[37] = test system: Shigella sonnei; experiment: Antibacterial activity against Shigella sonnei C-10 assessed as growth inhibition; format: functional
[38] = test system: Plasmodium falciparum; experiment: Antimalarial activity against Plasmodium falciparum Vietnam Oak Knoll in po dosed Owl monkey assessed as curative dose compound treated for 7 days in presence of 5 mg/kg sulfadiazine for 7 days; format: functional
[39] = test system: Plasmodium berghei; experiment: Antimalarial activity against trophozoite-induced Plasmodium berghei infected in mouse assessed as change in mean survival time at 5 mg/kg, sc single dose after 72 hrs of infection; format: functional; conditions: route subcutaneous
[40] = Inhibition of Plasmodium berghei dihydrofolate reductase
[41] = test system: Plasmodium gallinaceum; experiment: Antimalarial activity against trophozoite-induced Plasmodium gallinaceum infected in chick assessed as cured at 5 mg/kg, sc single dose; format: functional, organism-based; parameters: dose 5 mg/kg
[42] = test system: Enterococcus faecalis; experiment: Antibacterial activity against Streptococcus faecalis assessed as growth inhibition; format: functional, organism-based
[43] = test system: Plasmodium gallinaceum; experiment: Antimalarial activity against cycloguanil-resistant Plasmodium gallinaceum infected in mouse assessed as dose required to suppress parasitemia by 90% compound treated through gavage for 3 days; format: functional
[44] = test system: Staphylococcus aureus; experiment: Antibacterial activity against Staphylococcus aureus S18713 assessed as growth inhibition; format: functional
[45] = test system: Gallus gallus; experiment: Toxicity in trophozoite-induced Plasmodium gallinaceum infected in chick assessed as death at 2.5 mg/kg, sc single dose measured within 48 hrs; format: organism-based; parameters: dose 2.5 mg/kg, route subcutaneous; conditions: chicken, in vivo
[46] = Antibacterial activity against Pediococcus cerevisiae assessed as growth inhibition; format: functional
[47] = test system: Plasmodium gallinaceum; experiment: Antimalarial activity against trophozoite-induced Plasmodium gallinaceum infected in chick assessed as mean survival time at 160 mg/kg, sc single dose (reference value: 4 days); format: functional; conditions: route subcutaneous
[48] = test system: Plasmodium berghei; experiment: Antimalarial activity against trophozoite-induced Plasmodium berghei infected in mouse assessed as change in mean survival time at 20 mg/kg, sc single dose after 72 hrs of infection; format: functional; conditions: route subcutaneous
[49] = test system: Plasmodium berghei; experiment: Antimalarial activity against trophozoite-induced Plasmodium berghei infected in mouse assessed as change in mean survival time at 40 mg/kg, sc single dose after 72 hrs of infection; format: functional; conditions: route subcutaneous
[50] = test system: Gallus gallus; experiment: Toxicity in trophozoite-induced Plasmodium gallinaceum infected in chick assessed as death at 160 mg/kg, sc single dose measured within 48 hrs; format: organism-based; parameters: dose 160 mg/kg, route subcutaneous; conditions: chicken, in vivo
[51] = test system: Plasmodium berghei; experiment: Antimalarial activity against trophozoite-induced Plasmodium berghei infected in mouse assessed as change in mean survival time at 10 mg/kg, sc single dose after 72 hrs of infection; format: functional; conditions: route subcutaneous
[52] = test system: Plasmodium gallinaceum; experiment: Antimalarial activity against trophozoite-induced Plasmodium gallinaceum infected in chick assessed as cured at 160 mg/kg, sc single dose; format: functional, organism-based; parameters: dose 160 mg/kg
[53] = Toxicity in chloroquine-sensitive, pyrimethamine-resistant Plasmodium falciparum Malayan Camp CH/Q infected in Aotus monkey compound treated for 7 days; conditions: in vivo

For `Nc1nc(N)c2cc(S(=O)(=O)c3ccc4ccccc4c3)ccc2n1`, the CD90 [1] was 0.098 mg/kg, the MST [2] was 8.8 days and the MIC [3] was 25 µg/mL (≈ 71.3 µM). The MST [4] was 15 days, the MST [5] was 10.9 days and the MST [6] was 11.8 days. For the same molecule, the Activity [7] was “Toxic”, the MIC [8] was greater than 25 µg/mL and the CD90 [9] was 0.39 mg/kg. The CD90 [10] was 0.39 mg/kg, the Activity [11] was “Toxic” and the Activity [12] was “Active”. The MIC [13] was greater than 25 µg/mL, the Activity [14] was 0.025 mg/kg and the MST [15] was 20.4 days. The MST [16] was 12.1 days, the MST [17] was 6 days and the IC50 [18] was 0.00014 µg/mL (≈ 0.0004 µM). The Activity [19] was “Active”, the MIC [20] was greater than 25 µg/mL and the Activity [21] was “Active”. For the same molecule, the Activity [22] was “Active”, the “fold change (FC)” value [23] was 0 and the MIC [24] was greater than 25 µg/mL. The CD90 [25] was 0.025 mg/kg, the Activity [26] was “Toxic” and the Activity [27] was “Active”. It also gave an MST [28] of 13 days, an Activity [29] of 0.39 mg/kg and an MCD [30] of 20 mg/kg. For the same molecule, the CD90 [31] was 0.098 mg/kg, the Activity [32] was “Toxic” and the CD90 [33] was greater than 6.25 mg/kg. The Activity [34] was “Toxic”, the CD90 [35] was 6.25 mg/kg and the CD90 [36] was 0.39 mg/kg. For the same molecule, the MIC [37] was greater than 25 µg/mL, the CD90 [38] was 0.00156 mg/kg and the MST [39] was 15.6 days. For the same molecule, the IC50 [40] was 2.4 nM, the Activity [41] was “Active” and the IC50 [42] was 0.007 ng/mL (≈ 2e-05 µM). For the same molecule, the Activity [43] was 2.4 mg/kg, the MIC [44] was greater than 25 µg/mL and the Activity [45] was “Toxic”. For the same molecule, the IC50 [46] was 0.00016 µg/mL (≈ 0.000457 µM).

`COc1ccc(S(=O)(=O)c2ccc3nc(N)nc(N)c3c2)cc1` gave an MST [47] of 14.8 days, an MST [48] of 11.4 days and an MIC [3] of 2.5 µg/mL (≈ 7.57 µM). The MST [49] was 15.9 days, the Activity [50] was “Toxic” and the MIC [13] was greater than 25 µg/mL. For the same molecule, the MIC [20] was 2.5 µg/mL (≈ 7.57 µM), the MST [51] was 4.9 days and the MIC [24] was less than 0.25 µg/mL. For the same molecule, the Activity [52] was “Active”, the MCD [30] was 20 mg/kg and the MIC [37] was 2.5 µg/mL (≈ 7.57 µM). It also gave an MIC [44] of 2.5 µg/mL (≈ 7.57 µM).

For `CCc1nc(N)nc(N)c1-c1ccc(Cl)cc1` [PYRIMETHAMINE], the MST [48] was 7.7 days, the MST [5] was 3.1 days and the Activity [14] was 0.6 mg/kg. The MST [16] was 4.7 days, the MST [51] was 6.1 days and the CD90 [31] was 0.15 mg/kg. The CD90 [36] was 0.625 mg/kg, the MST [39] was 5.3 days and the MTD at 168 h [53] was greater than 2.5 mg/kg.

Source: ChEMBL document CHEMBL3244272, “Folate antagonists. 15. 2,3-Diamino-6-(2-naphthylsulfonyl)quinazoline and related 2,4-diamino-6-[(phenyl and naphthyl)sulfinyl and sulfonyl]quinazolines, a potent new class of antimetabolites with phenomenal antimalarial activity” (J Med Chem, 1979)
